Data set [1] in a line: Cytotoxicity against Human immunodeficiency virus 1 NLAD8 infected in human PM1 cells expressing CCR5 assessed as cell viability measured after 5 days by MTT assay. Conditions: PM1 cells expressing CCR5 infected with HIV-1 NLAD8, time 5 day. In kind it is cell-based.
A short description of data set [2]: Cytotoxicity against Human immunodeficiency virus 1 NL4-3 infected in human MT4 cells assessed as reduction in cell viability measured after 5 days by MTT assay. Conditions: MT4 cells infected with HIV-1 NL4-3, time 5 day. In kind it is cell-based.
The test system of data set [3] is Human immunodeficiency virus 1. Kind of data set: Antiviral activity against Human immunodeficiency virus 1 NL4-3 infected in human MT4 cells assessed as reduction in virus-induced cytopathogenicity measured after 5 days by MTT assay. In kind it is functional, organism-based. Conditions: Human immunodeficiency virus 1, NL4-3, MT4, 120 h. Background: Cytopathic effects are the visible damage that an infection or toxin causes in cultured cells.

The subject of data set [4] is Human immunodeficiency virus 1. Kind of data set: Antiviral activity against Human immunodeficiency virus 1 NLAD-8 infected in human PM1 cells expressing CCR5 assessed as reduction in virus-induced cytopathogenicity measured after 5 days by MTT assay. It counts as functional, organism-based. Conditions: Human immunodeficiency virus 1, NLAD-8, PM1, 120 h.

Bounds are passed on as bounds.

Usually CC50 stands for the concentration that lowers cell viability or growth by half. One may read the EC50 as the concentration needed to bring the measured effect to its halfway point.

Take `CC[C@H](C)[C@H](NC(C)=O)C(=O)N[C@H](C(=O)N[C@@H](CCCNC(=N)N)C(=O)N[C@@H](CCSC)C(=O)N[C@@H](Cc1ccc(O)cc1)C(=O)N[C@@H](CO)C(=O)N1CCC[C@H]1C(=O)N[C@H](C(=O)N[C@@H](CO)C(=O)N[C@H](C(=O)N[C@@H](CC(C)C)C(=O)N[C@@H](CC(=O)O)C(=O)N[C@H](C(=O)N[C@@H](CCCNC(=N)N)C(=O)N[C@@H](CCC(N)=O)C(=O)NCC(=O)N[C@@H](CSCC(=O)N[C@@H](CCCNC(=N)N)C(=O)N[C@@H](CCCNC(=N)N)C(=O)N[C@@H](CCCNC(=N)N)C(=O)N[C@@H](CCCNC(=N)N)C(=O)N[C@@H](CCCNC(=N)N)C(=O)N[C@@H](CCCNC(=N)N)C(=O)N[C@@H](CCCNC(=N)N)C(=O)N[C@@H](CCCNC(=N)N)C(N)=O)C(N)=O)[C@@H](C)CC)[C@@H](C)CC)[C@@H](C)O)C(C)C`: the CC50 at 120 h in data set [1] amounted to 18 µM; in data set [2], 9.3 µM. Besides, the EC50 in data set [3] amounted to 4.6 µM; in data set [4], 1200 nM.

As for `CC[C@H](C)[C@H](NC(C)=O)C(=O)N[C@H](C(=O)N[C@@H](CCCNC(=N)N)C(=O)N[C@@H](CCSC)C(=O)N[C@@H](Cc1ccc(O)cc1)C(=O)N[C@@H](CO)C(=O)N1CCC[C@H]1C(=O)N[C@H](C(=O)N[C@@H](COP(=O)(O)O)C(=O)N[C@H](C(=O)N[C@@H](CC(C)C)C(=O)N[C@@H](CC(=O)O)C(=O)N[C@H](C(=O)N[C@@H](CCCNC(=N)N)C(=O)N[C@@H](CCC(N)=O)C(=O)NCC(=O)N[C@@H](CSCC(=O)N[C@@H](CCCNC(=N)N)C(=O)N[C@@H](CCCNC(=N)N)C(=O)N[C@@H](CCCNC(=N)N)C(=O)N[C@@H](CCCNC(=N)N)C(=O)N[C@@H](CCCNC(=N)N)C(=O)N[C@@H](CCCNC(=N)N)C(=O)N[C@@H](CCCNC(=N)N)C(=O)N[C@@H](CCCNC(=N)N)C(N)=O)C(N)=O)[C@@H](C)CC)[C@@H](C)CC)[C@@H](C)O)C(C)C`, the CC50 at 120 h in data set [1] is greater than 50 µM; in data set [2] it was 44 µM. In addition, the EC50 in data set [3] was greater than 44 µM; in data set [4], greater than 50000 nM.

As for `CC[C@H](C)[C@H](NC(C)=O)C(=O)N[C@H](C(=O)N[C@@H](CCCNC(=N)N)C(=O)N[C@@H](CCSC)C(=O)N[C@@H](Cc1ccc(O)cc1)C(=O)N[C@@H](CO)C(=O)N1CCC[C@H]1C(=O)N[C@H](C(=O)N[C@@H](CCC(=O)O)C(=O)N[C@H](C(=O)N[C@@H](CC(C)C)C(=O)N[C@@H](CC(=O)O)C(=O)N[C@H](C(=O)N[C@@H](CCCNC(=N)N)C(=O)N[C@@H](CCC(N)=O)C(=O)NCC(=O)N[C@@H](CSCC(=O)N[C@@H](CCCNC(=N)N)C(=O)N[C@@H](CCCNC(=N)N)C(=O)N[C@@H](CCCNC(=N)N)C(=O)N[C@@H](CCCNC(=N)N)C(=O)N[C@@H](CCCNC(=N)N)C(=O)N[C@@H](CCCNC(=N)N)C(=O)N[C@@H](CCCNC(=N)N)C(=O)N[C@@H](CCCNC(=N)N)C(N)=O)C(N)=O)[C@@H](C)CC)[C@@H](C)CC)[C@@H](C)O)C(C)C`, the CC50 at 120 h in data set [1] is greater than 50 µM; in data set [2], 31 µM. The EC50 in data set [3] was greater than 31 µM; in data set [4] it was greater than 50000 nM.

On to `CC[C@H](C)[C@H](NC(C)=O)C(=O)N[C@H](C(=O)N[C@@H](CCCNC(=N)N)C(=O)N[C@@H](CCSC)C(=O)N[C@@H](Cc1ccc(O)cc1)C(=O)N[C@@H](CO)C(=O)N1CCC[C@H]1C(=O)N[C@H](C(=O)N[C@@H](CC(F)(F)P(=O)(O)O)C(=O)N[C@H](C(=O)N[C@@H](CC(C)C)C(=O)N[C@@H](CC(=O)O)C(=O)N[C@H](C(=O)N[C@@H](CCCNC(=N)N)C(=O)N[C@@H](CCC(N)=O)C(=O)NCC(=O)N[C@@H](CSCC(=O)N[C@@H](CCCNC(=N)N)C(=O)N[C@@H](CCCNC(=N)N)C(=O)N[C@@H](CCCNC(=N)N)C(=O)N[C@@H](CCCNC(=N)N)C(=O)N[C@@H](CCCNC(=N)N)C(=O)N[C@@H](CCCNC(=N)N)C(=O)N[C@@H](CCCNC(=N)N)C(=O)N[C@@H](CCCNC(=N)N)C(N)=O)C(N)=O)[C@@H](C)CC)[C@@H](C)CC)[C@@H](C)O)C(C)C`, for which the CC50 at 120 h in data set [1] and in data set [2] was greater than 50 µM each time. Also, the half-maximal effective concentration (EC50) in data set [3] was greater than 50 µM; in data set [4] it was greater than 50000 nM.

For the molecule `c1cc(CN2CCCNCCNCCCNCC2)ccc1CN1CCCNCCNCCCNCC1` [PLERIXAFOR], the CC50 at 120 h in data set [1] and in data set [2] was greater than 50 µM throughout. Besides, the values for the EC50 in data set [3] and in data set [4] were 0.035 µM and greater than 50000 nM, respectively.

On to `COC[C@@H](c1ccc(C(F)(F)F)cc1)N1CCN(C2(C)CCN(C(=O)c3c(C)ncnc3C)CC2)C[C@@H]1C` [VICRIVIROC], for which the CC50 at 120 h in data set [1] and in data set [2] was greater than 5 µM throughout. In addition, the results for the EC50 in data set [3] and in data set [4] were greater than 5 µM and 14 nM, respectively.

Consider `Cc1cn([C@H]2C[C@H](N=[N+]=[N-])[C@@H](CO)O2)c(=O)[nH]c1=O` [ZIDOVUDINE], for which the CC50 at 120 h was greater than 100 µM in data set [1] and greater than 50 µM in data set [2]. Further, the EC50 in data set [3] was 0.043 µM; in data set [4], 300 nM.

The record behind these values is ChEMBL document CHEMBL4725225, “Exploratory studies on CA-15L, an anti-HIV active HIV-1 capsid fragment” (Bioorg Med Chem, 2020).
